Laboratory results as given in the NIST ThermoML archive (doi:10.1021/je0602521).
± gives the expanded uncertainty stated by the source.

What was measured:
[1] = refractive index (Na D-line) (dimensionless); conditions: 298.15 K; 101.33 kPa; Liquid; Standard Abbe refractometry
[2] = 298.15 K; 101.33 kPa; Liquid

SMILES | refractive index [1] | mass density [2] [kg/m3]
CCO [ethanol] | 1.35941 ± 0.00068 | 
CO [methanol] |  | 786.46 ± 0.26
